Here are results for six compounds from patent publication US20090258870A1, “NOVEL ANSAMITOCIN DERIVATIVES” (priority 2008, published 2009).

For one test, the system named is U-937. The test can be described thus: Growth inhibition of U-937 cells, WST-1 assay. To be noted: for Antiproliferative activity IC50: U-937, lymphoma, 5 days, WST-1. The format is cell-based, human. As to the method: (§1) For the detailed evaluation of their biological profile as anti-cancer agents, cultured human tumor cell lines were treated with the new ansamitocin derivatives. In particular, the 19-fluoro-20-demethoxyansamitocin P3 (F-A), 19-chloro-20-demethoxyansamitocin P3 (Cl-A), 19-bromo-20-demethoxyansamitocin P3 (Br-A), and the 20-demethoxy-19-vinylansamitocin P3 (VI) were tested for their inhibitory effect on cell growth of different cell lines, namely KB-3-1, U-937, PC-3, SK-OV-3, A-498, A-431, and A-549, in comparison to natural biosynthesis product Ansamitocin P-3 (AP-3). Growth inhibition was measured in microtiter plates. 60 μl of serial dilutions of the test compounds were added to aliquots of 120 μl of the suspended cells (50000/ml). After 5 days the growth was determined using a MTT assay, except for U-937, where the WST-1 assay from Roche was employed.

The subject of another test is A-431. Kind of test: Growth inhibition of A-431 cells, MTT assay. It counts as cell-based, human. To be noted: for Antiproliferative activity IC50: A-431, epidermoid carcinoma, 5 days, MTT. As to the method: as §1
A general note: Formazan colour is commonly taken as a measure of viable cells.

The subject of a further test is SK-OV-3. Kind of test: Growth inhibition of SK-OV-3 cells, MTT assay. The format is cell-based, human. To be noted: for Antiproliferative activity IC50: SK-OV-3, ovarian carcinoma, 5 days, MTT. As to the method:
as §1

The test system of another test is KB-3-1. Kind of test: Growth inhibition of KB-3-1 cells, MTT assay. It counts as cell-based, human. To be noted: for Antiproliferative activity IC50: KB-3-1, cervix carcinoma, 5 days, MTT. The protocol: as §1
Another test relates to A-549. Kind of test: Growth inhibition of A-549 cells, MTT assay. It counts as cell-based, human. To be noted: for Antiproliferative activity IC50: A-549, lung carcinoma, 5 days, MTT. The protocol: as §1
A further test has as its system A-498. The test can be described thus: Growth inhibition of A-498 cells, MTT assay. It counts as cell-based, human. To be noted: for Antiproliferative activity IC50: A-498, kidney carcinoma, 5 days, MTT. The protocol:
as §1

Another test relates to PC-3. The test can be described thus: Growth inhibition of PC-3 cells, MTT assay. It counts as cell-based, human. To be noted: for Antiproliferative activity IC50: PC-3, prostate carcinoma, 5 days, MTT. As to the method:
as §1

In test [1] the test system is cultured human tumor cell lines. Kind of test: Antiproliferative activity on cultured human tumor cell lines (panel, general statements). It counts as cell-based. To be noted: in general, across the cell lines tested. The protocol:
as §1

Converted amounts (≈) assume the structure as drawn.

In the case of `COc1cc2cc(c1Cl)N(C)C(=O)C[C@H](OC(=O)C(C)C)[C@]1(C)O[C@@H]1[C@H](C)[C@@H]1C[C@@](O)(NC(=O)O1)[C@H](OC)/C=C/C=C(\C)C2` [AP-3, Ansamitocin P-3, reference compound], the “Antiproliferative activity IC50” value in the test with U-937 is 0.0035 ng/mL; in the test with A-431 it was 0.05 ng/mL; with SK-OV-3, 0.03 ng/mL; in the test on KB-3-1 it was 0.11 ng/mL; in the test on A-549, 0.1 ng/mL; with A-498, 1.1 ng/mL. Further, the “Antiproliferative activity IC50” value in the test with PC-3 was 0.035 ng/mL.

Turning to `CO[C@@H]1/C=C/C=C(\C)Cc2ccc(Br)c(c2)N(C)C(=O)C[C@H](OC(=O)C(C)C)[C@]2(C)O[C@H]2[C@H](C)[C@@H]2C[C@@]1(O)NC(=O)O2` [Br-A, 19-bromo-20-demethoxyansamitocin P3], the “Antiproliferative activity IC50” value with U-937 was 0.03 ng/mL; in the test on A-431, 0.1 ng/mL; in the test on SK-OV-3 it was 0.05 ng/mL; in the test with KB-3-1, 0.3 ng/mL; with A-549, 0.3 ng/mL; with A-498, 4 ng/mL. Also, the “Antiproliferative activity IC50” value with PC-3 was determined as 0.1 ng/mL.

As to “19-chloro-20-demethoxyansamitocin P3 [Cl-A]”, the “Antiproliferative activity IC50” value with U-937 is 0.035 ng/mL; in the test on A-431 it was 0.15 ng/mL; with SK-OV-3, 0.1 ng/mL; in the test on KB-3-1, 0.35 ng/mL; in the test on A-549, 0.4 ng/mL; with A-498 it was 3 ng/mL. The “Antiproliferative activity IC50” value in the test with PC-3 was determined as 0.12 ng/mL.

In the case of `C=Cc1ccc2cc1N(C)C(=O)C[C@H](OC(=O)C(C)C)[C@]1(C)O[C@H]1[C@H](C)[C@@H]1C[C@@](O)(NC(=O)O1)[C@H](OC)/C=C/C=C(\C)C2` [VI, 20-demethoxy-19-vinylansamitocin P3], the IC50 – broadly, the midpoint of a concentration-inhibition curve – turned out to be 0.05 ng/mL (≈ 0.0838 nM) in the test with U-937 (Homo sapiens, U-937, 120 h, read-out: Antiproliferative activity IC50); 0.04 ng/mL (≈ 0.067 nM) with A-431 (Homo sapiens, A-431, 120 h, read-out: Antiproliferative activity IC50); 0.04 ng/mL (≈ 0.067 nM) in the test on SK-OV-3 (Homo sapiens, SK-OV-3, 120 h, read-out: Antiproliferative activity IC50); 0.4 ng/mL (≈ 0.67 nM) in the test on KB-3-1 (Homo sapiens, KB 3-1, 120 h, read-out: Antiproliferative activity IC50); 0.14 ng/mL (≈ 0.235 nM) with A-549 (Homo sapiens, A549, 120 h, read-out: Antiproliferative activity IC50); 2 ng/mL (≈ 3.35 nM) in the test with A-498 (Homo sapiens, A498, 120 h, read-out: Antiproliferative activity IC50). The IC50 in the test with PC-3 (Homo sapiens, PC-3, 120 h, read-out: Antiproliferative activity IC50) was 0.1 ng/mL (≈ 0.168 nM).

In the case of “19-fluoro-20-demethoxyansamitocin P3 [F-A]”, the “Antiproliferative activity IC50” value is listed as 0.01 ng/mL in the test with U-937; 0.04 ng/mL in the test on A-431; 0.035 ng/mL in the test on SK-OV-3; 0.18 ng/mL in the test with KB-3-1; 0.11 ng/mL with A-549; 2 ng/mL in the test with A-498. The “Antiproliferative activity IC50” value in the test with PC-3 is on record as 0.035 ng/mL. Moreover, the “relative activity among the compounds tested” value in test [1] is listed as “most active”.

Consider `C=Cc1ccc2cc1N(C)C(=O)CC(OC(=O)C(C)C)C1(C)OC1C(C)C1CC(O)(NC(=O)O1)C(OC)C=CC=C(C)C2` (stereo not shown) [20-demethoxy-19-vinylansamitocin P3], for which the “relative activity among the compounds tested” value in test [1] was “most active”.
